Test results: PMC11747885, “Potent inhibitors of the human RNA ligase Rlig1 highlights its role in RNA integrity maintenance under oxidative cellular stress” (Chemical Science, 2025)
Several values for one entry are separate records, joined by “and”; a condition that tells them apart may be missing. Equal entries are not always repeated. Where two headings read alike, the source gives them in different places.

Assays:
Rlig1-AMP = molecular target: T1, Rlig1-AMP (Homo sapiens, UniProt Q8N999); assay: FRET-based high-throughput screening of inhibitors for Rlig1-AMP; assay type: biochemical; conditions: HTS hits; for 1-D Distance: difference of raw data w/o and w enzyme; for 1-D Distance.npi: normalized value (npi); for Raw data [w Enyzm]: with enzyme; for Raw data [w/o Enzym]: without enzyme
T1 construct: made in house; host or cells: E. coli BL21 (DE3), pET15b-Rlig1

NMDA receptor = molecular target: NMDA receptor; set-up: method as in MedChemExpress; conditions: ref MedChemExpress; cited from earlier work
[1] = ref MedChemExpress, cited from earlier work
Pim-1 = test system: Pim-1; set-up: method as in MedChemExpress; conditions: ref MedChemExpress; cited from earlier work
Pim-2 = test system: Pim-2; set-up: method as in MedChemExpress; conditions: ref MedChemExpress; cited from earlier work
B-Raf kinase = molecular target: B-Raf kinase; set-up: method as in MedChemExpress; conditions: ref MedChemExpress; cited from earlier work
Shp1 (SH-PTP1) = test system: Shp1 (SH-PTP1); set-up: method as in MedChemExpress; conditions: ref MedChemExpress; cited from earlier work
ALK2 = test system: ALK2; set-up: method as in MedChemExpress; conditions: ref MedChemExpress; cited from earlier work
BRD4 BD1 = test system: BRD4 BD1; set-up: method as in MedChemExpress; conditions: ref MedChemExpress; cited from earlier work
BRD4 BD2 = test system: BRD4 BD2; set-up: method as in MedChemExpress; conditions: ref MedChemExpress; cited from earlier work
tau protein = molecular target: tau protein; set-up: method as in MedChemExpress; conditions: tau protein aggregation; ref MedChemExpress; cited from earlier work
PU.1 = test system: PU.1; set-up: method as in MedChemExpress; conditions: in vitro; ref MedChemExpress; read-out: IC50, PU.1 binding; cited from earlier work
λB = molecular target: λB; set-up: method as in MedChemExpress; conditions: in vitro; ref MedChemExpress; read-out: KD, DB1976-λB affinity; cited from earlier work
c-Myc-Max = test system: c-Myc-Max; set-up: method as in MedChemExpress; conditions: c-Myc-Max dimerization; ref MedChemExpress; cited from earlier work
CDK7 = test system: CDK7; set-up: method as in MedChemExpress; conditions: ref MedChemExpress; cited from earlier work

T1 sequence (Q8N999 whole entry): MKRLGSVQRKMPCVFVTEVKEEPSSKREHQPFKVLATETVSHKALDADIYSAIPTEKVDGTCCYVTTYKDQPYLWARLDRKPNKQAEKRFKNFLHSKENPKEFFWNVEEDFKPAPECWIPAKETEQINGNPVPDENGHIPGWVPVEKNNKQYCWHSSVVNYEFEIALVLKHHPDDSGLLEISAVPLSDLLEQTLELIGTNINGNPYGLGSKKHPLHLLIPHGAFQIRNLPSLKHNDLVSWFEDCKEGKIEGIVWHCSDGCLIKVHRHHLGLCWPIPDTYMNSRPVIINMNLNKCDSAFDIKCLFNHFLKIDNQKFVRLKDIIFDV

Compound | 1-D Distance (Rlig1-AMP) | 1-D Distance.npi (Rlig1-AMP) | Raw data [w Enyzm] (Rlig1-AMP) | Raw data [w/o Enzym] (Rlig1-AMP) | solubility ([1]; DMSO) | other results
N[C@@H](Cc1cc(CP(=O)(O)O)cc(-c2ccccc2Cl)c1)C(=O)O [SDZ 220-581] | 1679 | 76.8207 | 24871 | 26550 | 8.57 mg/mL and 23.18 mM | pKi (NMDA receptor): SDZ 220-581 is an orally active, potent, competitive NMDA receptor antagonist with pKi value of 7.7[1].
CN1CCCN(C(=O)c2cccc(-c3ccc(/C=C4/C(=O)Nc5ccc(Cl)cc54)o3)c2)CC1 [CX-6258] | 641 | 93.2533 | 5174 | 5815 | […] | IC50 (Pim-1): […]; IC50 (Pim-2): 25 nM
CN(C)Cc1ccc(-c2cnn3c(-c4cccc(NC(=O)c5cccc(C(F)(F)F)c5)c4)ccnc23)cc1 [B-Raf IN 1] | 563 | 95.4397 | 7195 | 7758 |  | IC50 (B-Raf kinase): […]
O=S(=O)(O)c1ccc2cc(N=Nc3cc(S(=O)(=O)O)c4cccnc4c3O)ccc2c1 [NSC-87877] | 982 | 87.5142 | 1020 |  | 25 mg/mL and 54.41 mM | IC50 (Shp1 (SH-PTP1)): 355 nM
c1cc(-c2cnn3cc(-c4ccc(N5CCNCC5)cc4)cnc23)c2cccnc2c1 [LDN-212854] | 1181 | 85.2649 | 7408 | 8589 | ≥ 30 mg/mL and ≥ 73.80 mM | IC50 (ALK2): 1.3 nM
Cc1cc(N=Nc2ccc3c(c2)CCC(=O)N3)c(N)cc1O [ZL0420] | 1352 | 80.8903 | 1680 | 3032 |  | IC50 (BRD4 BD1): 27 nM; IC50 (BRD4 BD2): 32 nM
CN(C)c1ccc2c(c1)Sc1cc(N(C)C)ccc1N2.CS(=O)(=O)O.CS(=O)(=O)O [Leucomethylene blue (mesylate)] | 1844 | 72.1191 | 4383 | 6227 |  | Ki (tau protein): 120 nM
Cl.Cl.N=C(N)c1ccc2nc(-c3ccc(-c4nc5ccc(C(=N)N)cc5[nH]4)[se]3)[nH]c2c1 [DB1976 (dihydrochloride)] | 102 | 105.279 | 4805 | 4703 | 62.5 mg/mL and 120.13 mM | IC50 (PU.1): 10 nM; Kd (λB): 12 nM; solubility ([1]; H2O): 18.33 mg/mL and 35.23 mM
O=[N+]([O-])c1ccc(Nc2ccccc2-c2ccccc2)c2nonc12 [10074-G5] | 758 | 91.4368 | 1415 | 2173 |  | IC50 (c-Myc-Max): 146000 nM
CN(C)C/C=C/C(=O)Nc1ccc(C(=O)Nc2cccc(Nc3ncc(Cl)c(-c4c[nH]c5ccccc45)n3)c2)cc1.Cl [THZ1 (Hydrochloride)] | 289 | 99.9172 | 6030 | 5741 |  | IC50 (CDK7): 3.2 nM
